Reference: patent US20250296959A1, “B7-H3 TARGETING PEPTIDES AND CONSTRUCTS THEREOF” (Mariana Oncology Inc., priority 2024, published 2025)
Like-named read-outs stand apart in the source and are kept apart here. Starred links: 1 amine or outer side, 2 acyl side, 3 side chain; linkers in the order of their positions; H or OH if unused. Positions of bridges follow the written chain, without caps; N, C: chain ends. Non-standard residues stand in square brackets, D forms with d. Residues, ends and D or L forms follow the SMILES beside them. Groups on a side chain read outwards from the residue. *: point of attachment. Ala(1-CH2CO2H-4-piperidyl) = N[C@@H](CC1CCN(CC(=O)O)CC1)C(=O)O; Ala(piperidin-4-yl) = O=C([C@H](CC1CCN([*:3])CC1)N[*:1])[*:2]; DOTA = O=C(O)CN1CCN(CC(=O)O)CCN(CC(=O)*)CCN(CC(=O)O)CC1; Phe(4-NHCONH2) = NC(=O)Nc1ccc(C[C@H](N)C(=O)O)cc1; Trp(4-OMe) = COc1cccc2[nH]cc(C[C@H](N)C(=O)O)c12; Trp(5-F) = N[C@@H](Cc1c[nH]c2ccc(F)cc12)C(=O)O; X1 = C[C@@H](c1ccccc1)[C@H](N[*:1])C(=O)[*:2]; Trp(2-Me) = Cc1[nH]c2ccccc2c1C[C@H](N)C(=O)O; Ala(4-THP) = N[C@@H](CC1CCOCC1)C(=O)O; Val(3-OH) = CC(C)(O)[C@H](N)C(=O)O; Cit = NC(=O)NCCC[C@H](N)C(=O)O; pGlu = O=C1CC[C@@H](C(=O)O)N1; PEG4 = NCCOCCOCCOCCOCCC(=O)O; Tle = CC(C)(C)[C@H](N)C(=O)O; hLeu = CC(C)CC[C@H](N)C(=O)O

Target: T1, human 4lg B7-H3 (Homo sapiens, UniProt Q5ZPR3)
T1 sequence (Q5ZPR3 29-534): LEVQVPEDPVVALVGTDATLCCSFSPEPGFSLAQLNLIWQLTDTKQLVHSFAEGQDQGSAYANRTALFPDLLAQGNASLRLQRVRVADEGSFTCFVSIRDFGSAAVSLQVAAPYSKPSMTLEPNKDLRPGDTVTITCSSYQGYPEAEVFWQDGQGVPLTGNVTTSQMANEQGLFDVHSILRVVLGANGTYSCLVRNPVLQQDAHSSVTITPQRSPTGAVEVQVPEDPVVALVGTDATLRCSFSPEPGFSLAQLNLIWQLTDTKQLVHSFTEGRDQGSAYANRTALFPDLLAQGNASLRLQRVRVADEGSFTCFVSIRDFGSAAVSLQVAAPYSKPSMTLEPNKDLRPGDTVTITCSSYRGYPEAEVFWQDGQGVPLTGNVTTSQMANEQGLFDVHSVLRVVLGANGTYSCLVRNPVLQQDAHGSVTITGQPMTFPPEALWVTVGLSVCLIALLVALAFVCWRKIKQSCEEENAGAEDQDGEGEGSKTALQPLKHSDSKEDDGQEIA
Experiment: Affinity determination by surface plasmon resonance (SPR) to 4Ig B7-H3
Settings: 4Ig B7-H3, 37° C. flow cell temperature

Row | Compound | Kd (SPR KD—37° C.) [nM] | Kd (read-out: SPR KD—37° C.) [nM]
1 | CC(=O)N[C@@H](CCC(C)C)C(=O)N[C@@H](Cc1ccc(O)cc1)C(=O)N[C@H]1CSSC[C@@H](C(=O)N[C@@H](Cc2c[nH]c3ccc(F)cc23)C(=O)N[C@@H](Cc2ccccc2)C(=O)N[C@H](C(=O)N[C@H](C)C(=O)O)C(C)(C)O)NC(=O)[C@H](Cc2ccc(O)cc2)NC(=O)[C@H](C(C)C)NC(=O)[C@H](CC(=O)O)NC(=O)[C@H](CC2CCN(C(=O)CCOCCOCCOCCOCCNC(=O)CN3CCN(CC(=O)O)CCN(CC(=O)O)CCN(CC(=O)O)CC3)CC2)NC(=O)[C@H](CC2CCN(CC(=O)O)CC2)NC(=O)CNC(=O)[C@H](C(C)(C)C)NC1=O [compound 488, Ac-hLeu-Y-C-Tbg-G-Pip(CH2COOH)Ala-Pip(PEG4-DOTA)Ala-D-V-Y-C-5FW-F-hydroxyVal-dAla-COOH] (Ac-[hLeu]YC[Tle]G[Ala(1-CH2CO2H-4-piperidyl)][Ala(piperidin-4-yl)]([PEG4-DOTA])DVYC[Trp(5-F)]F[Val(3-OH)][dA]-OH; disulfide 3-11) | < 1 | –
2 | CC(=O)N[C@@H](CCC(C)C)C(=O)N[C@@H](Cc1ccc(O)cc1)C(=O)N[C@H]1CSSC[C@@H](C(=O)N[C@@H](Cc2c[nH]c3ccc(F)cc23)C(=O)N[C@@H](Cc2ccccc2)C(=O)N[C@H](C(=O)N[C@H](C)C(=O)O)C(C)(C)O)NC(=O)[C@H](Cc2ccc(O)cc2)NC(=O)[C@H](C(C)C)NC(=O)[C@H](CC(=O)O)NC(=O)[C@H](CC2CCN(C(=O)CCOCCOCCOCCOCCNC(=O)CN3CCN(CC(=O)O)CCN(CC(=O)O)CCN(CC(=O)O)CC3)CC2)NC(=O)[C@H](CCCNC(N)=O)NC(=O)CNC(=O)[C@H](C(C)(C)C)NC1=O [compound 489, Ac-hLeu-Y-C-Tbg-G-Cit-Pip(PEG4-DOTA)Ala-D-V-Y-C-5FW-F-hydroxyVal-dAla-COOH] (Ac-[hLeu]YC[Tle]G[Cit][Ala(piperidin-4-yl)]([PEG4-DOTA])DVYC[Trp(5-F)]F[Val(3-OH)][dA]-OH; disulfide 3-11) | – | < 1
3 | CC(=O)N[C@@H](CCC(C)C)C(=O)N[C@@H](Cc1ccc(O)cc1)C(=O)N[C@H]1CSSC[C@@H](C(=O)N[C@@H](Cc2c[nH]c3ccc(F)cc23)C(=O)N[C@@H](Cc2ccccc2)C(=O)N[C@H](C(=O)N[C@H](CO)C(=O)O)C(C)(C)O)NC(=O)[C@H](Cc2ccc(O)cc2)NC(=O)[C@H](C(C)C)NC(=O)[C@H](CC(=O)O)NC(=O)[C@H](CC2CCOCC2)NC(=O)[C@H](CC2CCN(C(=O)CCOCCOCCOCCOCCNC(=O)CN3CCN(CC(=O)O)CCN(CC(=O)O)CCN(CC(=O)O)CC3)CC2)NC(=O)CNC(=O)[C@H](C(C)(C)C)NC1=O [compound 490, Ac-hLeu-Y-C-Tbg-G-Pip(PEG4-DOTA)Ala-ThpA-D-V-Y-C-5FW-F-hydroxyVal-dSer-COOH] (Ac-[hLeu]YC[Tle]G[Ala(piperidin-4-yl)]([PEG4-DOTA])[Ala(4-THP)]DVYC[Trp(5-F)]F[Val(3-OH)][dS]-OH; disulfide 3-11) | < 1 | –
4 | CC(=O)N[C@@H](CCC(C)C)C(=O)N[C@@H](Cc1ccc(O)cc1)C(=O)N[C@H]1CSSC[C@@H](C(=O)N[C@@H](Cc2c(C)[nH]c3ccccc23)C(=O)N[C@@H](Cc2ccccc2)C(=O)N[C@H](C(=O)N[C@H](CCCCNC(=O)CN2CCN(CC(=O)O)CCN(CC(=O)O)CCN(CC(=O)O)CC2)C(=O)O)C(C)(C)O)NC(=O)[C@H](Cc2ccc(O)cc2)NC(=O)[C@H](C(C)C)NC(=O)[C@H](CC(=O)O)NC(=O)[C@H](CC2CCOCC2)NC(=O)[C@H](CC2CCNCC2)NC(=O)CNC(=O)[C@H](C(C)(C)C)NC1=O [compound 492, Ac-hLeu-Y-C-Tbg-G-PipAla-ThpA-D-V-Y-C-2MeW-F-hydroxyVal-dLys(DOTA)-COOH] (Ac-[hLeu]YC[Tle]G[Ala(piperidin-4-yl)][Ala(4-THP)]DVYC[Trp(2-Me)]F[Val(3-OH)][dK](DOTA)-OH; disulfide 3-11) | < 1 | –
5 | COc1cccc2[nH]cc(C[C@H](NC(=O)[C@@H]3CSSC[C@H](NC(=O)[C@H](Cc4ccc(O)cc4)NC(=O)[C@H](CCC(C)C)NC(C)=O)C(=O)N[C@@H](C(C)(C)C)C(=O)NCC(=O)N[C@@H](CC4CCNCC4)C(=O)N[C@@H](CC4CCOCC4)C(=O)N[C@@H](CC(=O)O)C(=O)N[C@@H](C(C)C)C(=O)N[C@@H](Cc4ccc(O)cc4)C(=O)N3)C(=O)N[C@@H](Cc3ccccc3)C(=O)N[C@H](C(=O)N[C@H](CCCCNC(=O)CN3CCN(CC(=O)O)CCN(CC(=O)O)CCN(CC(=O)O)CC3)C(=O)O)C(C)(C)O)c12 [compound 493, Ac-hLeu-Y-C-Tbg-G-PipAla-ThpA-D-V-Y-C-4MeOW-F-hydroxyVal-dLys(DOTA)-COOH] (Ac-[hLeu]YC[Tle]G[Ala(piperidin-4-yl)][Ala(4-THP)]DVYC[Trp(4-OMe)]F[Val(3-OH)][dK](DOTA)-OH; disulfide 3-11) | 1 to 10 | –
6 | CC(=O)N[C@@H](CCC(C)C)C(=O)N[C@@H](Cc1ccc(O)cc1)C(=O)N[C@H]1CSSC[C@@H](C(=O)N[C@@H](Cc2c[nH]c3ccc(F)cc23)C(=O)N[C@H](C(=O)N[C@H](C(=O)N[C@H](CCCCNC(=O)[C@H](CCC(=O)O)NC(=O)CN2CCN(CC(=O)O)CCN(CC(=O)O)CCN(CC(=O)O)CC2)C(=O)O)C(C)(C)O)[C@@H](C)c2ccccc2)NC(=O)[C@H](Cc2ccc(O)cc2)NC(=O)[C@H](C(C)C)NC(=O)[C@H](CC(=O)O)NC(=O)[C@H](CC2CCOCC2)NC(=O)[C@H](CC2CCNCC2)NC(=O)CNC(=O)[C@H](C(C)(C)C)NC1=O [compound 498, Ac-hLeu-Y-C-Tbg-G-PipAla-ThpA-D-V-Y-C-5FW-[(2S, 3S)beta-Me-Phe]-hydroxyVal-dLys(Glu-DOTA)-COOH] (Ac-[hLeu]YC[Tle]G[Ala(piperidin-4-yl)][Ala(4-THP)]DVYC[Trp(5-F)][X1][Val(3-OH)][dK]([Glu-DOTA])-OH; disulfide 3-11) | < 1 | –
7 | CC(=O)N[C@@H](CCC(C)C)C(=O)N[C@@H](Cc1ccc(O)cc1)C(=O)N[C@H]1CSSC[C@@H](C(=O)N[C@@H](Cc2c[nH]c3ccc(F)cc23)C(=O)N[C@H](C(=O)N[C@H](C(=O)N[C@H](CCCCNC(=O)CCOCCOCCOCCOCCNC(=O)CN2CCN(CC(=O)O)CCN(CC(=O)O)CCN(CC(=O)O)CC2)C(=O)O)C(C)(C)O)[C@@H](C)c2ccccc2)NC(=O)[C@H](Cc2ccc(NC(N)=O)cc2)NC(=O)[C@H](C(C)C)NC(=O)[C@H](CC(=O)O)NC(=O)[C@H](CC2CCOCC2)NC(=O)[C@H](CC2CCNCC2)NC(=O)CNC(=O)[C@H](C(C)(C)C)NC1=O [compound 500, Ac-hLeu-Y-C-Tbg-G-PipAla-ThpA-D-V-Aph(Cbm)-C-5FW-[(2S, 3S)beta-Me-Phe]-hydroxyVal-dLys(PEG4-DOTA)-COOH] (Ac-[hLeu]YC[Tle]G[Ala(piperidin-4-yl)][Ala(4-THP)]DV[Phe(4-NHCONH2)]C[Trp(5-F)][X1][Val(3-OH)][dK]([PEG4-DOTA])-OH; disulfide 3-11) | < 1 | –
8 | CC(=O)N[C@@H](CCC(C)C)C(=O)N[C@@H](Cc1ccc(O)cc1)C(=O)N[C@H]1CSSC[C@@H](C(=O)N[C@@H](Cc2c[nH]c3ccc(F)cc23)C(=O)N[C@H](C(=O)N[C@H](C(=O)N[C@H](CCCCNC(=O)CN2CCN(CC(=O)O)CCN(CC(=O)O)CCN(CC(=O)O)CC2)C(N)=O)C(C)(C)O)[C@@H](C)c2ccccc2)NC(=O)[C@H](Cc2ccc(O)cc2)NC(=O)[C@H](C(C)C)NC(=O)[C@H](CC(=O)O)NC(=O)[C@H](CC2CCOCC2)NC(=O)[C@H](CC2CCNCC2)NC(=O)CNC(=O)[C@H](C(C)(C)C)NC1=O [compound 502, Ac-hLeu-Y-C-Tbg-G-PipAla-ThpA-D-V-Y-C-5FW-[(2S, 3S)beta-Me-Phe]-hydroxyVal-dLys(DOTA)-CONH2] (Ac-[hLeu]YC[Tle]G[Ala(piperidin-4-yl)][Ala(4-THP)]DVYC[Trp(5-F)][X1][Val(3-OH)][dK](DOTA)-NH2; disulfide 3-11) | < 1 | –
9 | CC(=O)N[C@@H](CCC(C)C)C(=O)N[C@@H](Cc1ccc(O)cc1)C(=O)N[C@H]1CSSC[C@@H](C(=O)N[C@@H](Cc2c[nH]c3ccc(F)cc23)C(=O)N[C@H](C(=O)N[C@H](C(=O)N[C@H](CCCCNC(=O)[C@H](CCC(=O)O)NC(=O)CN2CCN(CC(=O)O)CCN(CC(=O)O)CCN(CC(=O)O)CC2)C(=O)O)C(C)(C)O)[C@@H](C)c2ccccc2)NC(=O)[C@H](Cc2ccc(NC(N)=O)cc2)NC(=O)[C@H](C(C)C)NC(=O)[C@H](CC(=O)O)NC(=O)[C@H](CC2CCOCC2)NC(=O)[C@H](CC2CCNCC2)NC(=O)CNC(=O)[C@H](C(C)(C)C)NC1=O [compound 503, Ac-hLeu-Y-C-Tbg-G-PipAla-ThpA-D-V-Aph(Cbm)-C-5FW-[(2S, 3S)beta-Me-Phe]-hydroxyVal-dLys(Glu-DOTA)-COOH] (Ac-[hLeu]YC[Tle]G[Ala(piperidin-4-yl)][Ala(4-THP)]DV[Phe(4-NHCONH2)]C[Trp(5-F)][X1][Val(3-OH)][dK]([Glu-DOTA])-OH; disulfide 3-11) | < 1 | –
10 | CC(C)CC[C@H](NC(=O)[C@@H]1CCC(=O)N1)C(=O)N[C@@H](Cc1ccc(O)cc1)C(=O)N[C@H]1CSSC[C@@H](C(=O)N[C@@H](Cc2c[nH]c3ccc(F)cc23)C(=O)N[C@H](C(=O)N[C@H](C(=O)N[C@H](CCCCNC(=O)CN2CCN(CC(=O)O)CCN(CC(=O)O)CCN(CC(=O)O)CC2)C(=O)O)C(C)(C)O)[C@@H](C)c2ccccc2)NC(=O)[C@H](Cc2ccc(NC(N)=O)cc2)NC(=O)[C@H](C(C)C)NC(=O)[C@H](CC(=O)O)NC(=O)[C@H](CC2CCOCC2)NC(=O)[C@H](CC2CCNCC2)NC(=O)CNC(=O)[C@H](C(C)(C)C)NC1=O [compound 504, Pyroglutamate-hLeu-Y-C-Tbg-G-PipAla-ThpA-D-V-Aph(Cbm)-C-5FW-[(2S, 3S)beta-Me-Phe]-hydroxyVal-dLys(DOTA)-COOH] ([pGlu][hLeu]YC[Tle]G[Ala(piperidin-4-yl)][Ala(4-THP)]DV[Phe(4-NHCONH2)]C[Trp(5-F)][X1][Val(3-OH)][dK](DOTA)-OH; disulfide 4-12) | < 1 | –
